For 16 compounds, Papp A→B results are on record in patent publication US20200131669A1, “CYCLIC PEPTIDE COMPOUND HAVING HIGH MEMBRANE PERMEABILITY, AND LIBRARY CONTAINING SAME” (Chugai Seiyaku Kabushiki Kaisha, priority 2017, published 2020).

Starred links: 1 amine or outer side, 2 acyl side, 3 side chain; linkers in the order of their positions; H or OH if unused. Positions of bridges follow the written chain, without caps; N, C: chain ends. Non-standard residues stand in square brackets, D forms with d. Residues, ends and D or L forms follow the SMILES beside them. ξ: configuration not given here. *: point of attachment. Glu(NHSO2Me) = CS(=O)(=O)NC(=O)CC[C@H](N)C(=O)O; NMePhe(3-Cl) = CN[C@@H](Cc1cccc(Cl)c1)C(=O)O; NMeF = CN[C@@H](Cc1ccccc1)C(=O)O; NMeGABA = CN(CCCC(=O)[*:2])[*:1]; ξThr(3R) = C[C@@H](O)C(N)C(=O)O; NMeL = CN[C@@H](CC(C)C)C(=O)O; NMeV = CN[C@H](C(=O)O)C(C)C; NMeAbu = CC[C@H](NC)C(=O)O; NMeA = CN[C@@H](C)C(=O)O; Piperidide = C1CCN(*)CC1; Me2NCH2CH2 = CN(C)CC*; NBuGly = CCCCNCC(=O)O; Isopentyl = CC(C)CC*; NPrGly = CCCNCC(=O)O; ξS = NC(CO)C(=O)O; Sar = CNCC(=O)O; tBu = CC(C)(C)*

One data set can be described thus: Caco-2 membrane permeability, improved method as used in the following Examples (96-well, 20 to 24 h preincubation). The format is in vitro ADME. The following applies: human, Caco-2, Caco-2. The method, then: In the following Examples, membrane permeability was measured in accordance with the improved method established as described above. Specifically, Caco-2 cells were cultured on a 96-well Transwell for three weeks, after which DMEM+FaSSIF (1% DMSO)+compound were added to the apical side and DMEM was added to the basal side, and the cells were preincubated at 5% CO2, 37° C., and 80 rpm for 20 to 24 hours. Following the preincubation, measurement of membrane permeability was initiated by removing the preincubation solution on the apical and basal sides by suction, washing the membrane, and adding FaSSIF/HBSS buffer (1% DMSO) (pH 6.0) containing the compound to the apical side and HBSS buffer (4% BSA) (pH 7.4) to the basal side. Each well was shaken at 5% CO2, 37° C., and 80 rpm, and 180 minutes after the initiation, the sample on the basal side was collected and the permeation amount was measured by LC/MS. The membrane permeability coefficient (Papp) was calculated from the permeation amount. Herein, the terms “Caco-2 (cm/sec)” in the columns in the tables and “Papp (cm/sec)” are used in the same meaning.
On to `CCCN1CC(=O)N(C)[C@@H](CC(C)C)C(=O)N[C@@H](COC(C)(C)C)C(=O)N(C)[C@@H](Cc2ccccc2)C(=O)N(C)[C@@H](C(C)C)C(=O)N[C@H](C(=O)N2CCCCC2)CC(=O)N[C@H](C(C)C)C(=O)N(C)[C@@H](Cc2ccccc2)C(=O)N[C@@H](COCCN(C)C)C(=O)N(C)[C@@H](CC(C)C)C(=O)N[C@@H]([C@@H](C)O)C1=O` [pd50] ([dV][NMeF]S(Me2NCH2CH2)[NMeL]T[NPrGly][NMeL]S(tBu)[NMeF][NMeV]D-Piperidide; lactam N-11), for which the Papp A→B at 180 min stood at 1.5 nm/s.
`CCCCN1CC(=O)N(C)[C@@H](CC(C)C)C(=O)N[C@@H](COCCN(C)C)C(=O)N(C)[C@@H](Cc2ccccc2)C(=O)N(C)[C@@H](C(C)C)C(=O)N[C@H](C(=O)N2CCCCC2)CC(=O)N[C@H](CC(C)C)C(=O)N(C)[C@@H](Cc2ccccc2)C(=O)N[C@@H](CC(C)C)C(=O)N(C)[C@@H](CC(C)C)C(=O)N[C@@H]([C@@H](C)O)C1=O` [pd51] ([dL][NMeF]L[NMeL]T[NBuGly][NMeL]S(Me2NCH2CH2)[NMeF][NMeV]D-Piperidide; lactam N-11) yielded a Papp A→B at 180 min of 0.7 nm/s.
On the same count and under the same terms, as for `CCCN1CC(=O)N(C)[C@@H](CC(C)C)C(=O)N[C@@H](COCCN(C)C)C(=O)N(C)[C@@H](Cc2ccccc2)C(=O)N(C)[C@@H](C(C)C)C(=O)N[C@H](C(=O)N2CCCCC2)CC(=O)N[C@H](C(C)C)C(=O)N(C)[C@@H](Cc2ccccc2)C(=O)N[C@@H](CC(C)C)C(=O)N(C)[C@@H](CC(C)C)C(=O)N[C@@H]([C@@H](C)O)C1=O` [pd52] ([dV][NMeF]L[NMeL]T[NPrGly][NMeL]S(Me2NCH2CH2)[NMeF][NMeV]D-Piperidide; lactam N-11), the figure is 1.2 nm/s.
On the same count and under the same terms, as for `CCCCN1CC(=O)N(C)[C@@H](CC(C)C)C(=O)N[C@@H](COC(C)(C)C)C(=O)N(C)[C@@H](Cc2ccccc2)C(=O)N(C)[C@@H](C(C)C)C(=O)N[C@H](C(=O)N2CCCCC2)CC(=O)N[C@H](C(C)C)C(=O)N(C)[C@@H](Cc2ccccc2)C(=O)N[C@@H](COCCN(C)C)C(=O)N(C)[C@@H](CC(C)C)C(=O)N[C@@H]([C@@H](C)O)C1=O` [pd53] ([dV][NMeF]S(Me2NCH2CH2)[NMeL]T[NBuGly][NMeL]S(tBu)[NMeF][NMeV]D-Piperidide; lactam N-11), the figure is 1.4 nm/s; as for `CC(C)C[C@@H]1NC(=O)[C@H](CC(C)C)N(C)C(=O)CCCN(C)C(=O)C[C@@H](C(=O)N2CCCCC2)NC(=O)[C@H](CC(C)C)N(C)C(=O)[C@H](CC(C)C)N(C)C(=O)[C@H]([C@@H](C)O)NC(=O)[C@H](CC(C)C)N(C)C(=O)[C@H](COCCN(C)C)NC(=O)[C@H](Cc2ccccc2)N(C)C(=O)[C@H](Cc2ccccc2)N(C)C1=O` [pd54] ([NMeGABA][NMeL]L[NMeF][NMeF]S(Me2NCH2CH2)[NMeL]T[NMeL][NMeL]D-Piperidide; lactam N-11), 0.73 nm/s; as for `CCCCN1CC(=O)N(C)[C@@H](C(C)C)C(=O)N[C@H](C(=O)N2CCCCC2)CC(=O)N(C)[C@@H](C)C(=O)N[C@@H](COCCN(C)C)C(=O)N(C)[C@@H](CC(C)C)C(=O)N(C)[C@@H](Cc2ccccc2)C(=O)N[C@@H](CC(C)C)C(=O)N(C)[C@@H](Cc2ccccc2)C(=O)N(C)[C@@H](CC(C)C)C(=O)N[C@@H]([C@@H](C)O)C1=O` [pd56] ([NMeA]S(Me2NCH2CH2)[NMeL][NMeF]L[NMeF][NMeL]T[NBuGly][NMeV]D-Piperidide; lactam N-11), 1.2 nm/s.
Same read-out and setting: as for `CCCN1CC(=O)N(C)[C@@H](C(C)C)C(=O)N[C@H](C(=O)N2CCCCC2)CC(=O)N(C)[C@@H](C)C(=O)N[C@@H](CC(C)C)C(=O)N(C)[C@@H](CC(C)C)C(=O)N(C)[C@@H](Cc2ccccc2)C(=O)NC(COCCN(C)C)C(=O)N(C)[C@@H](Cc2ccccc2)C(=O)N(C)[C@@H](CC(C)C)C(=O)N[C@@H]([C@@H](C)O)C1=O` (stereo partly drawn) [pd57] ([NMeA]L[NMeL][NMeF][ξS](Me2NCH2CH2)[NMeF][NMeL]T[NPrGly][NMeV]D-Piperidide; lactam N-11), the figure is 1.2 nm/s; as for `CCCCN1CC(=O)N(C)[C@@H](Cc2ccccc2)C(=O)N[C@@H](COCCN(C)C)C(=O)N(C)[C@@H](CC(C)C)C(=O)N[C@@H]([C@@H](C)O)C(=O)N(C)CC(=O)N(C)[C@@H](Cc2ccccc2)C(=O)N(C)[C@@H](CC)C(=O)N[C@@H](COCCC(C)C)C(=O)N(C)[C@@H](CC(C)C)C(=O)N[C@H](C(=O)N2CCCCC2)CC1=O` [pd58] ([NBuGly][NMeF]S(Me2NCH2CH2)[NMeL]T[Sar][NMeF][NMeAbu]S(Isopentyl)[NMeL]D-Piperidide; lactam N-11), 0.21 nm/s; as for `CCCCN1CC(=O)N(C)[C@@H](CC(C)C)C(=O)N[C@@H](CC(C)C)C(=O)N(C)[C@@H](Cc2ccccc2)C(=O)N(C)[C@@H](C(C)C)C(=O)N[C@H](C(=O)N2CCCCC2)CC(=O)N[C@H](CC(C)C)C(=O)N(C)[C@@H](Cc2cccc(Cl)c2)C(=O)N[C@@H](CCC(=O)NS(C)(=O)=O)C(=O)N(C)[C@@H](CC(C)C)C(=O)NC([C@@H](C)O)C1=O` (stereo partly drawn) [pd59] ([dL][NMePhe(3-Cl)][Glu(NHSO2Me)][NMeL][ξThr(3R)][NBuGly][NMeL]L[NMeF][NMeV]D-Piperidide; lactam N-11), under 0.088 nm/s.
As for `CCCCN1CC(=O)N(C)[C@@H](CC(C)C)C(=O)N[C@@H](CCC(=O)NS(C)(=O)=O)C(=O)N(C)[C@@H](Cc2cccc(Cl)c2)C(=O)N(C)[C@@H](C(C)C)C(=O)N[C@H](C(=O)N2CCCCC2)CC(=O)N[C@H](CC(C)C)C(=O)N(C)[C@@H](Cc2cccc(Cl)c2)C(=O)N[C@@H](CC(C)C)C(=O)N(C)[C@@H](CC(C)C)C(=O)N[C@@H]([C@@H](C)O)C1=O` [pd60] ([dL][NMePhe(3-Cl)]L[NMeL]T[NBuGly][NMeL][Glu(NHSO2Me)][NMePhe(3-Cl)][NMeV]D-Piperidide; lactam N-11), the Papp A→B at 180 min stood at 0.1 nm/s.
As to `CCCCN1CC(=O)N(C)[C@@H](CC(C)C)C(=O)N[C@@H](CCC(=O)NS(C)(=O)=O)C(=O)N(C)[C@@H](Cc2cccc(Cl)c2)C(=O)N(C)[C@@H](C(C)C)C(=O)N[C@H](C(=O)N2CCCCC2)CC(=O)N[C@H](CC(C)C)C(=O)N(C)[C@@H](Cc2cccc(Cl)c2)C(=O)N[C@@H](CC(C)C)C(=O)N(C)[C@@H](CC)C(=O)N[C@@H]([C@@H](C)O)C1=O` [pd61] ([dL][NMePhe(3-Cl)]L[NMeAbu]T[NBuGly][NMeL][Glu(NHSO2Me)][NMePhe(3-Cl)][NMeV]D-Piperidide; lactam N-11), the Papp A→B at 180 min was under 0.94 nm/s.
Same read-out and setting: as for `CCCCN1CC(=O)N(C)[C@@H](C(C)C)C(=O)N[C@H](C(=O)N2CCCCC2)CC(=O)N(C)[C@@H](CC(C)C)C(=O)N[C@@H](CCC(=O)NS(C)(=O)=O)C(=O)N(C)[C@@H](CC(C)C)C(=O)N(C)[C@@H](Cc2ccccc2)C(=O)N[C@@H](CC(C)C)C(=O)N(C)[C@@H](Cc2ccccc2)C(=O)N(C)[C@@H](CC(C)C)C(=O)N[C@@H]([C@@H](C)O)C1=O` [pd62] ([NMeL][Glu(NHSO2Me)][NMeL][NMeF]L[NMeF][NMeL]T[NBuGly][NMeV]D-Piperidide; lactam N-11), the figure is under 1.3 nm/s.
`CCCCN1CC(=O)N(C)[C@@H](C(C)C)C(=O)N[C@H](C(=O)N2CCCCC2)CC(=O)N(C)[C@@H](CC)C(=O)N[C@@H](CCC(=O)NS(C)(=O)=O)C(=O)N(C)[C@@H](CC(C)C)C(=O)N(C)[C@@H](Cc2cccc(Cl)c2)C(=O)N[C@@H](CC(C)C)C(=O)N(C)[C@@H](Cc2ccccc2)C(=O)N(C)[C@@H](CC(C)C)C(=O)N[C@@H]([C@@H](C)O)C1=O` [pd63] ([NMeAbu][Glu(NHSO2Me)][NMeL][NMePhe(3-Cl)]L[NMeF][NMeL]T[NBuGly][NMeV]D-Piperidide; lactam N-11): the Papp A→B at 180 min was under 1 nm/s.
Take `CCCCN1CC(=O)N(C)[C@@H](CC(C)C)C(=O)N[C@H](C(=O)N2CCCCC2)CC(=O)N(C)[C@@H](CC(C)C)C(=O)N[C@@H](CC(C)C)C(=O)N(C)[C@@H](CC)C(=O)N(C)[C@@H](Cc2ccccc2)C(=O)N[C@@H](CCC(=O)NS(C)(=O)=O)C(=O)N(C)[C@@H](Cc2cccc(Cl)c2)C(=O)N(C)[C@@H](CC(C)C)C(=O)NC([C@@H](C)O)C1=O` (stereo partly drawn) [pd64] ([NMeL]L[NMeAbu][NMeF][Glu(NHSO2Me)][NMePhe(3-Cl)][NMeL][ξThr(3R)][NBuGly][NMeL]D-Piperidide; lactam N-11): the Papp A→B at 180 min stood at 1.5 nm/s.
In turn, `CCCCN1CC(=O)N(C)[C@@H](Cc2ccccc2)C(=O)N[C@@H](CCC(=O)NS(C)(=O)=O)C(=O)N(C)[C@@H](CC(C)C)C(=O)N[C@@H]([C@@H](C)O)C(=O)N(CCCC)CC(=O)N(C)[C@@H](Cc2ccccc2)C(=O)N(C)[C@@H](CC(C)C)C(=O)N[C@@H](CC(C)C)C(=O)N(C)[C@@H](CC(C)C)C(=O)N[C@H](C(=O)N2CCCCC2)CC1=O` [pd65] ([NBuGly][NMeF][Glu(NHSO2Me)][NMeL]T[NBuGly][NMeF][NMeL]L[NMeL]D-Piperidide; lactam N-11) showed a Papp A→B at 180 min of 0.6 nm/s.

The data set is the same for the next values; noted with them: human; Papp; Table 25, cyclic peptides containing Ser(Et-2-NMe2) or Gln(Ms), not in table head; read-out: Caco-2.
With `CC(C)C[C@@H]1NC(=O)[C@H](Cc2ccccc2)N(C)C(=O)[C@H](Cc2ccccc2)N(C)C(=O)[C@H](COCCN(C)C)NC(=O)[C@H](CC(C)C)N(C)C(=O)CCCN(C)C(=O)C[C@@H](C(=O)N2CCCCC2)NC(=O)[C@H](CC(C)C)N(C)C(=O)[C@H](CC(C)C)N(C)C(=O)[C@H]([C@@H](C)O)NC(=O)[C@H](CC(C)C)N(C)C1=O` [pd55] ([NMeGABA][NMeL]S(Me2NCH2CH2)[NMeF][NMeF]L[NMeL]T[NMeL][NMeL]D-Piperidide; lactam N-11), the Papp A→B at 180 min was 1 nm/s.
